# pIC50: −log10 of the molar value. Active and inactive are the calls of the source. The calls are words filed in the database; no cut-off is given here.
# Columns and labels:
# HT-29 = assay: Cytotoxicity against human HT-29 cells after 24 hrs by MTT assay; format: functional, cell-based; conditions: HT-29, 24 h
# MCF7 [1] = assay: cells; conditions: Homo sapiens, MCF7, 24 h
# Description: Cytotoxicity against human MCF7 cells after 24 hrs by MTT assay
# MCF7 [2] = assay: Cell cycle arrest in human MCF7 cells assessed as accumulation at G2M phase at 50 nM after 24 to 72 hrs by propidium iodide staining-based FACS analysis relative to control; format: functional
# MCF7 [3] = assay: Induction of apoptosis in human MCF7 cells assessed as early apoptotic cells at 50 nM after 48 hrs by annexin V-FITC/propidium iodide staining based FACS flow cytometry (reference value: 4 %); format: functional
# MCF7 [4] = assay: Cell cycle arrest in human MCF7 cells assessed as accumulation at G1 phase at 50 to 5000 nM after 24 hrs by propidium iodide staining-based FACS analysis relative to control; format: functional
# MCF7 [5] = assay: Induction of apoptosis in human MCF7 cells assessed as increase in Bcl-xS expression level at 50 nM after 24 to 72 hrs by Western blotting analysis; format: functional, cell-based
# MCF7 [6] = assay: Induction of apoptosis in human MCF7 cells assessed as early apoptotic cells at 50 nM after 72 hrs by annexin V-FITC/propidium iodide staining based FACS flow cytometry (reference value: 4 %); format: functional
# MCF7 [7] = assay: Induction of apoptosis in human MCF7 cells assessed as cytochrome C release at 50 nM after 72 hrs by Western blotting analysis; format: functional, cell-based
# [8] = target: T1, Tumour suppressor p53/oncoprotein Mdm2 (Homo sapiens) (UniProt P04637+Q00987); assay: Inhibition of MDM2-p53 interaction in human MCF7 cells after 72 hrs by immunoprecipitation assay; format: cell-based
# MCF7 [9] = assay: Induction of apoptosis in human MCF7 cells assessed as reduction in Bcl-xL expression level at 50 nM after 24 to 72 hrs by Western blotting analysis; format: functional, cell-based
# MCF7 [10] = assay: Induction of apoptosis in human MCF7 cells assessed as increase in p21 expression level at 50 nM by Western blotting analysis; format: functional, cell-based; conditions: TDE = time-dependent effect
# MCF7 [11] = assay: Cell cycle arrest in human MCF7 cells assessed as accumulation at S phase at 50 to 5000 nM after 24 hrs by propidium iodide staining-based FACS analysis relative to control; format: functional
# MCF7 [12] = assay: Cell cycle arrest in human MCF7 cells assessed as accumulation at G2M phase at 50 to 5000 nM after 24 hrs by propidium iodide staining-based FACS analysis relative to control; format: functional
# HepG2 = assay: cells; conditions: Homo sapiens, HepG2, 24 h
# Description: Cytotoxicity against human HepG2 cells after 24 hrs by MTT assay
# MCF7 [13] = assay: Cell cycle arrest in human MCF7 cells assessed as accumulation at S phase at 50 nM after 24 to 72 hrs by propidium iodide staining-based FACS analysis relative to control; format: functional
# MCF7 [14] = assay: Induction of apoptosis in human MCF7 cells assessed as increase in p27 expression level at 50 nM by Western blotting analysis; format: functional, cell-based; conditions: TDE = time-dependent effect
# [15] = Ratio of Doxorubicin IC50 to compound IC50 against human Calu cells; format: functional
# U-937 = assay: Cytotoxicity against human U937 cells after 24 hrs by MTT assay; format: functional, cell-based; conditions: U-937, 24 h
# MCF7 [16] = assay: Cell cycle arrest in human MCF7 cells assessed as accumulation at G1 phase at 50 nM after 24 to 72 hrs by propidium iodide staining-based FACS analysis relative to control; format: functional
# MCF7 [17] = assay: Induction of apoptosis in human MCF7 cells assessed as accumulation at subG1 phase at 50 nM by propidium iodide staining-based FACS analysis; format: functional, cell-based; conditions: TDE = time-dependent effect
# [18] = Cytotoxicity against human C643 cells after 24 hrs by MTT assay; conditions: C643, 24 h
# MCF7 [19] = assay: Induction of apoptosis in human MCF7 cells assessed as increase in p53 expression level at 50 nM by Western blotting analysis; format: functional, cell-based; conditions: TDE = time-dependent effect
# [20] = Cytotoxicity against human Calu cells after 24 hrs by MTT assay; format: functional, cell-based
# [21] = target: T1, Tumour suppressor p53/oncoprotein Mdm2 (Homo sapiens); assay: Inhibition of MDM2-p53 interaction in human MCF7 cells assessed as p53 accumulation at 50 nM after 24 to 72 hrs by Western blot analysis; format: cell-based
# [22] = Cytotoxicity against human HGF cells after 24 hrs by MTT assay; format: cell-based
# PC-3 = assay: cells; conditions: Homo sapiens, PC-3, 24 h
# Description: Cytotoxicity against human PC3 cells after 24 hrs by MTT assay
# [23] = target: T1, Tumour suppressor p53/oncoprotein Mdm2 (Homo sapiens); assay: Inhibition of MDM2-p53 interaction in human MCF7 cells assessed as reduction in p53 level bound to MDM2 after 24 to 48 hrs by immunoprecipitation assay; format: cell-based
# MCF7 [24] = assay: Induction of apoptosis in human MCF7 cells assessed as accumulation of caspase-3 cleavage product at 50 nM after 24 to 72 hrs by Western blotting analysis
# [25] = target: T1, Tumour suppressor p53/oncoprotein Mdm2 (Homo sapiens); assay: Inhibition of MDM2-p53 interaction in human MCF7 cells assessed as MDM2 accumulation at 50 nM after 24 to 72 hrs by Western blot analysis; format: cell-based
# T1 sequence (P04637 whole entry, looked up): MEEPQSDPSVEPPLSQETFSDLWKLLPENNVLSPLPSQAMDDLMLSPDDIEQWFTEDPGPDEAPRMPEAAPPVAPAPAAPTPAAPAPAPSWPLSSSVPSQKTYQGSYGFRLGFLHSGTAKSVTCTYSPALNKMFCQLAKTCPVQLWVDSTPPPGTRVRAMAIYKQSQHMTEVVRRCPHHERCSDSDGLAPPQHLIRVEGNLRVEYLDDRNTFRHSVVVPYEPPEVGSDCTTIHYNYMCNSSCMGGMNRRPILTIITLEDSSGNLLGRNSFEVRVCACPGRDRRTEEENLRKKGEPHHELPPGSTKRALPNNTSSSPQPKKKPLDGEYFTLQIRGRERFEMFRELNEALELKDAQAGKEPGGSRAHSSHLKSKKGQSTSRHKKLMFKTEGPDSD
# T1 sequence (Q00987 whole entry, looked up): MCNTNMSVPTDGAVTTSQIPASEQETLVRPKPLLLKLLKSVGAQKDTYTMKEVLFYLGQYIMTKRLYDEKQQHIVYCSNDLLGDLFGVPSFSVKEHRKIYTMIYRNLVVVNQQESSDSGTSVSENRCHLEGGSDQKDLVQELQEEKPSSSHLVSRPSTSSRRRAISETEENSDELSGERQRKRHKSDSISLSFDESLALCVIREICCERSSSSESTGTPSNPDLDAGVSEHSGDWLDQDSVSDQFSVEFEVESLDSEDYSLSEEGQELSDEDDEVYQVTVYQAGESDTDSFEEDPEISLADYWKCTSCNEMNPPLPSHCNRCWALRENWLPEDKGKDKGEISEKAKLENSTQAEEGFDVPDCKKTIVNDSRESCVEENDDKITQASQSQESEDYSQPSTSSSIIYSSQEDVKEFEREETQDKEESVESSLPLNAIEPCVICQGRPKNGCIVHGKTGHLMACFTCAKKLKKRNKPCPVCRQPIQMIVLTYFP
smiles,measurement,setting,value
CCOC(=O)[C@@H]1CS[C@@]2(C(=O)Nc3ccccc32)N1C(=O)c1ccc(Cl)cc1,pIC50,HT-29,5.43
same,pIC50,MCF7 [1],5.67
CCOC(=O)[C@@H]1CS[C@@]2(C(=O)Nc3ccc(C)cc32)N1C(=O)c1ccc(Cl)cc1,pIC50,HT-29,5.96
same,pIC50,MCF7 [1],5.67
CCOC(=O)[C@@H]1CS[C@@]2(C(=O)Nc3ccc(Br)cc32)N1C(=O)c1ccc(Cl)cc1,pIC50,HT-29,6.96
same,pIC50,MCF7 [1],6.05
CCOC(=O)[C@@H]1CS[C@]2(C(=O)Nc3ccc(Br)cc32)N1C(=O)c1ccc(Cl)cc1,pIC50,HT-29,5.70
same,pIC50,MCF7 [1],5.52
CCOC(=O)[C@@H]1CS[C@@]2(C(=O)N(C)c3ccccc32)N1C(=O)c1ccc(Cl)cc1,pIC50,HT-29,6.74
same,pIC50,MCF7 [1],5.34
CCOC(=O)[C@@H]1CS[C@@]2(C(=O)N(C)c3ccc(C)cc32)N1C(=O)c1ccc(Cl)cc1,pIC50,HT-29,6.92
same,pIC50,MCF7 [1],5.91
CCOC(=O)[C@@H]1CS[C@@]2(C(=O)N(C)c3ccc(Br)cc32)N1C(=O)c1ccc(Cl)cc1,pIC50,HT-29,7.10
same,pIC50,MCF7 [1],6.28
CCOC(=O)[C@@H]1CS[C@@]2(C(=O)N(C)c3ccc(Br)cc32)N1C(=O)Cc1ccc(Cl)cc1,pIC50,HT-29,6.44
same,pIC50,MCF7 [1],6.57
CCOC(=O)[C@@H]1CS[C@@]2(C(=O)N(C)c3ccc(Br)cc32)N1C(=O)c1ccccc1,pIC50,HT-29,6.68
same,pIC50,MCF7 [1],6.51
CCOC(=O)[C@@H]1CS[C@@]2(C(=O)N(C)c3ccc(Br)cc32)N1C(=O)c1ccc(C)cc1,pIC50,HT-29,7.05
same,pIC50,MCF7 [1],7.22
CCOC(=O)[C@@H]1CS[C@]2(N1)C(=O)N(C(=O)c1ccc(Cl)cc1)c1ccccc12,pIC50,HT-29,5.99
same,pIC50,MCF7 [1],6.00
CCOC(=O)[C@@H]1CS[C@]2(N1)C(=O)N(C(=O)c1ccc(Cl)cc1)c1ccc(C)cc12,pIC50,HT-29,6.64
same,pIC50,MCF7 [1],5.46
CCOC(=O)[C@@H]1CS[C@]2(N1)C(=O)N(C(=O)c1ccc(Cl)cc1)c1ccc(Br)cc12,pIC50,HT-29,7.70
same,pIC50,MCF7 [1],6.82
CCOC(=O)[C@@H]1CS[C@]2(N1)C(=O)N(C(=O)C1CCCCC1)c1ccc(Br)cc12,pIC50,HT-29,5.85
CCOC(=O)C1=N[C@@]2(SC1)C(=O)N(C(=O)C1CCCCC1)c1ccc(Br)cc12,pIC50,HT-29,6.07
CCOC(=O)[C@@H]1CS[C@@]2(C(=O)Nc3ccc(C)cc32)N1C(=O)Cc1ccc(Cl)cc1,pIC50,HT-29,6.11
same,pIC50,MCF7 [1],5.32
CCOC(=O)[C@@H]1CS[C@@]2(C(=O)Nc3ccc(Br)cc32)N1C(=O)Cc1ccc(Cl)cc1,pIC50,HT-29,6.18
same,pIC50,MCF7 [1],5.54
O=C1C2CSC3(C(=O)Nc4ccccc43)N2C(=O)N1Cc1ccc(Cl)cc1 (configuration not stated),pIC50,HT-29,5.80
same,pIC50,MCF7 [1],5.92
CCOC(=O)[C@@H]1CS[C@@]2(C(=O)Nc3ccccc32)N1C(=O)Cc1ccc(Cl)cc1,pIC50,HT-29,6.00
same,pIC50,MCF7 [1],< 5.30
CCOC(=O)[C@@H]1CS[C@@]2(C(=O)N(C)c3ccc(Br)cc32)N1C(=O)C1CCCCC1 (mixture of isomers),Activity,MCF7 [2],inactive
same,Activity,MCF7 [3],10%
same,Activity,MCF7 [4],inactive
same,Activity,MCF7 [5],Active
same,Activity,MCF7 [6],12%
same,Activity,MCF7 [7],Active
same,inhibition,[8],inactive
same,pIC50,HT-29,7.15
same,Activity,MCF7 [9],Active
same,Activity,MCF7 [10],tde
same,Activity,MCF7 [11],inactive
same,Activity,MCF7 [12],inactive
same,pIC50,HepG2,6.85
same,Activity,MCF7 [13],inactive
same,Activity,MCF7 [14],tde
same,Ratio IC50,[15],18
same,pIC50,U-937,7.15
same,Activity,MCF7 [16],inactive
same,Activity,MCF7 [17],tde
same,pIC50,[18],6.26
same,Activity,MCF7 [19],tde
same,pIC50,[20],7.00
same,inhibition,[21],Active
same,pIC50,[22],5.80
same,pIC50,MCF7 [1],7.40
same,pIC50,PC-3,6.39
same,inhibition,[23],Active
same,Activity,MCF7 [24],Active
same,inhibition,[25],Active
CCOC(=O)[C@@H]1CS[C@@]2(C(=O)N(C)c3ccc(C)cc32)N1C(=O)C1CCCCC1 (mixture of isomers),pIC50,HT-29,5.96
same,pIC50,MCF7 [1],5.92
CCOC(=O)[C@@H]1CS[C@@]2(C(=O)N(C)c3ccccc32)N1C(=O)C1CCCCC1 (mixture of isomers),pIC50,HT-29,5.72
same,pIC50,MCF7 [1],5.64
CCOC(=O)[C@@H]1CS[C@@]2(C(=O)Nc3ccc(Br)cc32)N1C(=O)C1CCCCC1 (mixture of isomers),pIC50,HT-29,6.25
same,pIC50,MCF7 [1],6.66
CN1C(=O)[C@@]2(SC[C@@H](C(=O)O)N2C(=O)C2CCCCC2)c2cc(Br)ccc21 (mixture of isomers),pIC50,HT-29,5.72
same,pIC50,MCF7 [1],5.70
COc1ccc(C2=N[C@@H](c3ccc(Cl)cc3)[C@@H](c3ccc(Cl)cc3)N2C(=O)N2CCNC(=O)C2)c(OC(C)C)c1 (relative stereo) [NUTLIN-3],pIC50,HepG2,4.99
same,pIC50,U-937,4.81
same,pIC50,[18],4.64
same,pIC50,[20],4.57
same,pIC50,[22],5.85
same,pIC50,MCF7 [1],5.54
same,pIC50,PC-3,4.52
"CCOC(=O)C1=N[C@@]2(SC1)C(=O)N(C(=O)c1ccc(Cl)cc1)c1ccc(Br)cc12 (single isomer, unassigned)",pIC50,HT-29,6.70
same,pIC50,MCF7 [1],6.07
COc1cccc2c1C(=O)c1c(O)c3c(c(O)c1C2=O)C[C@@](O)(C(=O)CO)C[C@@H]3O[C@H]1C[C@H](N)[C@H](O)[C@H](C)O1 [DOXORUBICIN],pIC50,HepG2,7.10
same,pIC50,U-937,6.92
same,pIC50,[20],5.74
same,pIC50,[22],6.30
same,pIC50,PC-3,6.12

# Reference: ChEMBL document CHEMBL2396587, “Synthesis, in vitro, and in cell studies of a new series of [indoline-3,2'-thiazolidine]-based p53 modulators” (J Med Chem, 2013)
